The record followed here is ChEMBL document CHEMBL5126582, “Discovery of (2-(pyrrolidin-1-yl)thieno[3,2-d]pyrimidin-4-yl)(3,4,5-trimethoxyphenyl)methanone as a novel potent tubulin depolymerizing and vascular disrupting agent” (Eur J Med Chem, 2022).

A value given as a limit tells only on which side of the number the result lay.

For data set [1], the system named is HL-60. The data set is described as follows: Antiproliferative activity against human HL-60 cells assessed as reduction in cell viability incubated for 48 hrs by MTS assay. It is filed as functional, cell-based. To be noted: HL-60, 48 h.
In data set [2] the test system is HCT-116. Briefly: Antiproliferative activity against human HCT-116 cells assessed as reduction in cell viability incubated for 48 hrs by MTS assay. Format: functional, cell-based. Conditions: HCT-116, 48 h. For orientation: Tetrazolium assays rely on reduction of a dye to a coloured formazan, in cell work by metabolically active cells.
Data set [3] relates to HeLa. The data set is described as follows: Antiproliferative activity against human HeLa cells assessed as reduction in cell viability incubated for 48 hrs by MTS assay. Format: functional, cell-based.
Data set [4] relates to A549. The data set is described as follows: cells. Conditions: Homo sapiens, A549, 48 h.
Description: Antiproliferative activity against human A549 cells assessed as reduction in cell viability incubated for 48 hrs by MTS assay
The nature of data set [5]: Metabolic stability in rat liver microsomes assessed as intrinsic clearance incubated for 5 mins in presence of NADPH by HPLC analysis. It is filed as ADME, Microsome. To be noted: read-out: CLH. A general note: Liver microsomes are vesicles of endoplasmic reticulum, rich in cytochrome P450 enzymes.
Data set [6] in a line: Antiproliferative activity against human A549/PTX cells assessed as reduction in cell viability measured for 48 hrs by MTS assay. Format: functional, cell-based.
A short description of data set [7]: Resistance index, ratio of IC50 for antiproliferative activity against human A549/PTX cells assessed as reduction in cell viability to IC50 for antiproliferative activity against human A549 cells assessed as reduction in cell viability. Format: functional.

`COc1cc(C(=O)c2nc(N3CCCCC3)nc3ccsc23)cc(OC)c1OC`: the IC50 in data set [1] is 1120 nM; in data set [2], > 10000 nM; in data set [3], 1200 nM; in data set [4] it was > 10000 nM.
For `COc1cc(C(=O)c2nc(N3CCOCC3)nc3ccsc23)cc(OC)c1OC`, the IC50 in data set [1], in data set [2], in data set [3] and in data set [4] was > 10000 nM in each case.
With `COc1cc(C(=O)c2nc(NC3CCOCC3)nc3ccsc23)cc(OC)c1OC`, the IC50 in data set [1] was 8050 nM; in data set [2], > 10000 nM; in data set [3], > 10000 nM; in data set [4], > 10000 nM.
On to `COc1cccc(C(=O)c2nc(N3CCCC3)nc3ccsc23)c1`, for which the IC50 is 9570 nM in data set [1], > 10000 nM in data set [2], > 10000 nM in data set [3] and > 10000 nM in data set [4].
For `CNc1nc(C(=O)c2cc(OC)c(OC)c(OC)c2)c2sccc2n1`, the IC50 in data set [1] amounted to 32 nM; in data set [2], 114 nM; in data set [3], 58 nM; in data set [4] it was 45 nM.
As for `O=C(O)Cc1ccccc1Nc1c(Cl)cccc1Cl` [DICLOFENAC], the microsomal CLint in data set [5] came to 64.2 µL/min/mg.
`COc1cc(C(=O)c2nc(N3CCS(=O)(=O)CC3)nc3ccsc23)cc(OC)c1OC`: the IC50 in data set [1], in data set [2], in data set [3] and in data set [4] was > 10000 nM in each case.
With `COc1cc(C(=O)c2nc(N3CCN(C)CC3)nc3ccsc23)cc(OC)c1OC`, the IC50 in data set [1], in data set [2], in data set [3] and in data set [4] was > 10000 nM in each case.
Take `COc1cc(C(=O)c2nc(N(C)C)nc3ccsc23)cc(OC)c1OC`: the IC50 in data set [1] was 536 nM; in data set [2] it was > 10000 nM; in data set [3], 1220 nM; in data set [4], > 10000 nM.
Turning to `COc1cc(C(=O)c2nc(N3CC=CC3)nc3ccsc23)cc(OC)c1OC`, the IC50 in data set [1] amounted to 93 nM; in data set [2], 26 nM; in data set [3] it was 22 nM; in data set [4], 101 nM.
The matching figures for `CCNc1nc(C(=O)c2cc(OC)c(OC)c(OC)c2)c2sccc2n1`: 174 nM, 309 nM, 37 nM and 147 nM.
For `CCOc1nc(C(=O)c2cc(OC)c(OC)c(OC)c2)c2sccc2n1`, the IC50 in data set [1] was 7090 nM; in data set [2] it was > 10000 nM; in data set [3], > 10000 nM; in data set [4], > 10000 nM.
On to `CCN(CC)c1nc(C(=O)c2cc(OC)c(OC)c(OC)c2)c2sccc2n1`, for which the IC50 in data set [1], in data set [2], in data set [3] and in data set [4] was > 10000 nM throughout.
On to `CC(=O)O[C@H]1C(=O)[C@@]2(C)[C@H]([C@H](OC(=O)c3ccccc3)[C@]3(O)C[C@H](OC(=O)[C@H](O)[C@@H](NC(=O)c4ccccc4)c4ccccc4)C(C)=C1C3(C)C)[C@]1(OC(C)=O)CO[C@@H]1C[C@@H]2O` [PACLITAXEL], for which the IC50 in data set [6] was determined as 1020 nM; in data set [4] it was 1.1 nM. Also, the “Ratio IC50” value in data set [7] worked out at 964.
Consider `COc1cc(C(=O)c2nc(N3CCCC3)nc3cc(C)sc23)cc(OC)c1OC`, for which the IC50 in data set [1] is 122 nM; in data set [2] it was 1740 nM; in data set [3], 194 nM; in data set [4] it was 452 nM.
The like results for `COc1cc(C(=O)c2nc(Cl)nc3ccsc23)cc(OC)c1OC` were, in that order, 889 nM, 225 nM, 1140 nM and 954 nM.
As for `COc1cc(C(=O)c2nc(N3CCNCC3)nc3ccsc23)cc(OC)c1OC`, the IC50 in data set [1], in data set [2], in data set [3] and in data set [4] was > 10000 nM each time.
Turning to `COc1cc(C(=O)c2nc(SC)nc3ccsc23)cc(OC)c1OC`, the IC50 in data set [1] is 285 nM; in data set [2] it was > 10000 nM; in data set [3], > 10000 nM; in data set [4] it was > 10000 nM.
On to `COc1cc(C(=O)c2nc(N3CCC(F)(F)C3)nc3ccsc23)cc(OC)c1OC`, for which the IC50 came out at 377 nM in data set [1], 507 nM in data set [2], 351 nM in data set [3] and 303 nM in data set [4].
As to `COc1ccc(C(=O)c2nc(N3CCCC3)nc3ccsc23)cc1OC`, the IC50 in data set [1], in data set [2], in data set [3] and in data set [4] was > 10000 nM in each case.
`COc1ccc(C(=O)c2nc(N3CCCC3)nc3ccsc23)cc1`: the IC50 in data set [1], in data set [2], in data set [3] and in data set [4] was > 10000 nM each time.
In the case of `COc1cc(C(=O)c2nc(N3CCC3)nc3ccsc23)cc(OC)c1OC`, the IC50 in data set [1] stood at 486 nM; in data set [2], 278 nM; in data set [3] it was 758 nM; in data set [4], 3140 nM.
The matching figures for `COc1cc(C(=O)c2nc(C3CCCC3)nc3ccsc23)cc(OC)c1OC`: > 10000 nM, > 10000 nM, > 10000 nM and > 10000 nM.
The matching figures for `COc1cc(C(=O)c2nc(N3CCSCC3)nc3ccsc23)cc(OC)c1OC`: > 10000 nM, > 10000 nM, > 10000 nM and > 10000 nM.
The matching figures for `COc1cc(OC)cc(C(=O)c2nc(N3CCCC3)nc3ccsc23)c1`: 934 nM, 616 nM, 4380 nM and 4340 nM.
Take `COc1cc(C(=O)c2nc(Nc3cccc(C)c3)nc3ccsc23)cc(OC)c1OC`: the IC50 worked out at 151 nM in data set [2] and 53 nM in data set [3].
For `COc1cc(C(=O)c2nc(NC3CCCCC3)nc3ccsc23)cc(OC)c1OC`, the IC50 in data set [1] is 2460 nM; in data set [2] it was > 10000 nM; in data set [3], > 10000 nM; in data set [4] it was > 10000 nM.
As to `COc1nc(C(=O)c2cc(OC)c(OC)c(OC)c2)c2sccc2n1`, the IC50 in data set [1] is 224 nM; in data set [2], 329 nM; in data set [3], 263 nM; in data set [4], 965 nM.
Regarding `COc1cc(C(=O)c2nc(N(C)C3CCCCC3)nc3ccsc23)cc(OC)c1OC`, the IC50 in data set [1], in data set [2], in data set [3] and in data set [4] was > 10000 nM in each case.
As to `COc1cc(C(=O)c2nc(N3CCC(O)C3)nc3ccsc23)cc(OC)c1OC` (configuration not stated), the IC50 in data set [1] was found to be 3430 nM; in data set [2], 1400 nM; in data set [3] it was 2200 nM; in data set [4], 4980 nM.
As to `COc1cc(C(=O)c2nc(NC3CCCC3)nc3ccsc23)cc(OC)c1OC`, the IC50 in data set [1] was 8400 nM; in data set [2], > 10000 nM; in data set [3] it was > 10000 nM; in data set [4] it was > 10000 nM.
`COc1cc(C(=O)c2nc(NC3CCC3)nc3ccsc23)cc(OC)c1OC`: the IC50 in data set [1] was determined as 651 nM; in data set [2], 293 nM; in data set [3], 933 nM; in data set [4], 2400 nM.

As a reminder, the IC50 is the concentration at which inhibition is half-maximal.
